Three compounds from US12121027B2, “Herbicidal combinations” (UPL LTD, priority 2018, dated 2024) can be followed below.

The test system of one assay is Chenopodium album. Nature of the assay: Herbicidal mixture trial, percentage weed control. Particulars: Pinoxaden 46 g/ha, Metribuzin 280 g/ha, 2,4-D 500 g/ha. The class given is in vivo. The protocol: (§1) Trials were carried out for evaluating the herbicidal mixtures of the invention on different weeds. The percentage control was calculated from the observed percent weed coverage data after 15 DAA and 30 DAA.

Another assay has as its system Phalaris minor. Nature of the assay: Herbicidal mixture trial, percentage weed control. The note with it: Pinoxaden 46 g/ha, Metribuzin 280 g/ha, 2,4-D 500 g/ha. The class given is in vivo. As to the method:
as §1

The mark [1] stands for this setting: 15 DAA, combination 64 g/ha + 725 g/ha + 280 g/ha.
The mark [2] stands for this setting: 30 DAA, combination 64 + 725 + 280.

Molecules are shown by their SMILES.

As to `O=C(O)COc1ccc(Cl)cc1Cl` [2,4-D], the “percentage control, Actual” value in the assay on Chenopodium album (setting [1]) turned out to be 90.3%; in the assay on Chenopodium album (setting [2]) it was 86%; in the assay with Phalaris minor (setting [1]) it was 29%; with Phalaris minor (setting [2]), 30.2%.

As for `CCc1cc(C)cc(CC)c1-c1c(OC(=O)C(C)(C)C)n2n(c1=O)CCOCC2` [Pinoxaden, N 8-(2,6-diethyl-p-tolyl)-1,2,4,5-tetrahydro-7-oxo-7H-pyrazolo[1,2-d][1,4,5]oxadiazepin-9-yl 2,2-dimethylpropionate], the “percentage control, Actual” value is 68% in the assay with Chenopodium album (setting [1]), 85.3% with Chenopodium album (setting [2]), 53.4% in the assay on Phalaris minor (setting [1]) and 73.6% in the assay on Phalaris minor (setting [2]).

Consider `CSc1nnc(C(C)(C)C)c(=O)n1N` [Metribuzin], for which the “percentage control, Actual” value in the assay with Chenopodium album (setting [1]) worked out at 78%; in the assay with Chenopodium album (setting [2]), 88%; in the assay on Phalaris minor (setting [1]), 67.4%; in the assay with Phalaris minor (setting [2]), 73.8%.
